Results as given in ChEMBL document CHEMBL5614387, “Discovery of 2,4,6-trisubstituted pyrimidine derivatives as novel potent HIV-1 NNRTIs by exploiting the tolerant region II of the NNIBP” (Eur J Med Chem, 2024).

Assays:
[1] = system: Human immunodeficiency virus 1; experiment: Antiviral activity against wild-type HIV-1 IIIB infected in human MT4 cells assessed as protection against virus-induced cytopathic effect by MTT assay; type: functional, organism-based; conditions: Human immunodeficiency virus 1, IIIB
[2] = Cytotoxicity against human MT4 cells assessed as reduction in cell viability by MTT assay; type: toxicity, cell-based
[3] = Selectivity index, ratio of CC50 for human MT4 cells to EC50 for wild-type HIV-1 IIIB infected in human MT4 cells; type: toxicity, cell-based; conditions: read-out: Ratio CC50/EC50
[4] = system: Human immunodeficiency virus 1; experiment: Antiviral activity against HIV-1 harboring RT L100I mutant infected in human MT4 cells assessed as protection against virus-induced cytopathic effect by MTT assay; type: functional, organism-based; conditions: Human immunodeficiency virus 1, MT4
[5] = system: Human immunodeficiency virus 1; experiment: Antiviral activity against HIV-1 harboring RT K103N mutant infected in human MT4 cells assessed as protection against virus-induced cytopathic effect by MTT assay; type: functional, organism-based; conditions: Human immunodeficiency virus 1, MT4
[6] = system: Human immunodeficiency virus 1; experiment: Antiviral activity against HIV-1 harboring RT Y181C mutant infected in human MT4 cells assessed as protection against virus-induced cytopathic effect by MTT assay; type: functional, organism-based; conditions: Human immunodeficiency virus 1, MT4
[7] = system: Human immunodeficiency virus 1; experiment: Antiviral activity against HIV-1 harboring RT Y188L mutant infected in human MT4 cells assessed as protection against virus-induced cytopathic effect by MTT assay; type: functional, organism-based; conditions: Human immunodeficiency virus 1, MT4
[8] = system: Human immunodeficiency virus 1; experiment: Antiviral activity against HIV-1 harboring RT E138K mutant infected in human MT4 cells assessed as protection against virus-induced cytopathic effect by MTT assay; type: functional, organism-based; conditions: Human immunodeficiency virus 1, MT4
[9] = system: Human immunodeficiency virus 1; experiment: Antiviral activity against HIV-1 harboring RT F227L/V106A mutant infected in human MT4 cells assessed as protection against virus-induced cytopathic effect by MTT assay; type: functional, organism-based; conditions: Human immunodeficiency virus 1, MT4
[10] = system: Human immunodeficiency virus 1; experiment: Antiviral activity against HIV-1 harboring RT RES056 mutant infected in human MT4 cells assessed as protection against virus-induced cytopathic effect by MTT assay; type: functional, organism-based; conditions: Human immunodeficiency virus 1, MT4
[11] = target: Human immunodeficiency virus type 1 reverse transcriptase (Human immunodeficiency virus 1, UniProt Q72547); experiment: Inhibition of wild-type HIV-1 reverse transcriptase incubated for 1 hr in presence of biotin-dUTP by ELISA

Structure (SMILES) | EC50 [1] | CC50 [2] | selectivity ratio [3] | EC50 [4] | EC50 [5] | EC50 [6] | EC50 [7] | EC50 [8] | EC50 [9] | EC50 [10] | IC50 [11]
Cc1cc(C#N)cc(C)c1Oc1cc(-c2ccccc2)nc(NC2CCN(Cc3ccc(C(N)=O)cc3)CC2)n1 | 6.23 nM | 23100 nM | 3710 |  |  |  |  |  |  |  | 
Cc1cc(C#N)cc(C)c1Oc1cc(-c2ccsc2)nc(NC2CCN(Cc3ccc(S(C)(=O)=O)cc3)CC2)n1 | 167 nM | > 219000 nM | > 1310 |  |  |  |  |  |  |  | 
Cc1cc(C#N)cc(C)c1Oc1cc(-c2ccoc2)nc(NC2CCN(Cc3ccc(S(C)(=O)=O)cc3)CC2)n1 | 5.56 nM | 22600 nM | 4060 |  |  |  |  |  |  |  | 
Cc1cc(C#N)cc(C)c1Oc1cc(-c2ccncc2)nc(NC2CCN(Cc3ccc(S(N)(=O)=O)cc3)CC2)n1 | 3.62 nM | 18400 nM | 5080 | 99.7 nM | 10.6 nM | 43.4 nM | 58.6 nM | 14.8 nM | 72.6 nM | 1210 nM | 507 nM
Cc1cc(C#N)cc(C)c1Oc1cc(-c2ccco2)nc(NC2CCN(Cc3ccc(S(N)(=O)=O)cc3)CC2)n1 | 7.85 nM | 22800 nM | 2900 |  |  |  |  |  |  |  | 
Cc1cc(C#N)cc(C)c1Oc1cc(-c2cccs2)nc(NC2CCN(Cc3ccc(S(C)(=O)=O)cc3)CC2)n1 | 5.53 nM | 16600 nM | 3000 |  |  |  |  |  |  |  | 
Cc1cc(C#N)cc(C)c1Oc1cc(-c2ccco2)nc(NC2CCN(Cc3ccc(C(N)=O)cc3)CC2)n1 | 15.5 nM | 24000 nM | 1550 |  |  |  |  |  |  |  | 
Cc1cc(C#N)cc(C)c1Oc1cc(-c2cccs2)nc(NC2CCN(Cc3ccc(S(N)(=O)=O)cc3)CC2)n1 | 10.6 nM | 24600 nM | 2320 |  |  |  |  |  |  |  | 
Cc1cc(C#N)cc(C)c1Oc1cc(-c2ccncc2)nc(NC2CCN(Cc3ccc(S(C)(=O)=O)cc3)CC2)n1 | 4.07 nM | 26300 nM | 6460 | 58.3 nM | 10.1 nM | 50.9 nM | 61.5 nM | 17.8 nM | 107 nM | 2350 nM | 520 nM
Cc1cc(C#N)cc(C)c1Oc1cc(-c2ccsc2)nc(NC2CCN(Cc3ccc(S(N)(=O)=O)cc3)CC2)n1 | 4.45 nM | 14800 nM | 3330 | 9.83 nM | 4.61 nM | 37.1 nM | 46.4 nM | 42.4 nM | 61.6 nM | 311 nM | 236 nM
Cc1cc(C#N)cc(C)c1Oc1cc(-c2ccccc2)nc(NC2CCN(Cc3ccc(S(C)(=O)=O)cc3)CC2)n1 | 4.68 nM | 12500 nM | 2670 | 11.4 nM | 6.82 nM | 27.7 nM | 38 nM | 32.5 nM | 26 nM | 229 nM | 231 nM
Cc1cc(C#N)cc(C)c1Oc1cc(-c2ccoc2)nc(NC2CCN(Cc3ccc(C(N)=O)cc3)CC2)n1 | 5.49 nM | 19800 nM | 3610 |  |  |  |  |  |  |  | 
O=C1Nc2ccc(Cl)cc2[C@@](C#CC2CC2)(C(F)(F)F)O1 [EFAVIRENZ] | 3.67 nM | > 6340 nM |  | 28.9 nM |  |  | 396 nM | 8.82 nM | 261 nM |  | 
Cc1cc(C#N)cc(C)c1Oc1cc(-c2ccccc2)nc(NC2CCN(Cc3ccc(S(N)(=O)=O)cc3)CC2)n1 | 6.01 nM | 18000 nM | 3000 |  |  |  |  |  |  |  | 
Cc1cc(C#N)cc(C)c1Oc1cc(-c2cccnc2)nc(NC2CCN(Cc3ccc(S(N)(=O)=O)cc3)CC2)n1 | 4.04 nM | 18200 nM | 4500 | 31.2 nM | 13.1 nM | 26 nM | 36.5 nM | 21.1 nM | 105 nM | 494 nM | 461 nM
Cc1cc(C#N)cc(C)c1Oc1cc(-c2cccnc2)nc(NC2CCN(Cc3ccc(S(C)(=O)=O)cc3)CC2)n1 | 4.12 nM | 20600 nM | 5000 | 58.5 nM | 9.01 nM | 21.9 nM | 36.6 nM | 26.1 nM | 147 nM | 799 nM | 607 nM
Cc1cc(C#N)cc(C)c1Oc1cc(-c2cncnc2)nc(NC2CCN(Cc3ccc(S(N)(=O)=O)cc3)CC2)n1 | 4.29 nM | 109000 nM | 25400 | 39.8 nM | 13 nM | 26 nM | 55 nM | 34.5 nM | 63.4 nM | 916 nM | 733 nM
Cc1cc(C#N)cc(C)c1Oc1cc(-c2cncnc2)nc(NC2CCN(Cc3ccc(S(C)(=O)=O)cc3)CC2)n1 | 6.72 nM | 108000 nM | 16100 |  |  |  |  |  |  |  | 
Cc1cc(C#N)cc(C)c1Oc1cc(-c2ccsc2)nc(NC2CCN(Cc3ccc(C(N)=O)cc3)CC2)n1 | 5.06 nM | 23700 nM | 4680 |  |  |  |  |  |  |  | 
Cc1ccnc2c1NC(=O)c1cccnc1N2C1CC1 [NEVIRAPINE] |  | > 15000 nM | > 73 | 3130 nM | 8250 nM | 9210 nM | > 15000 nM | 363 nM | > 15000 nM | > 15000 nM | 
Cc1cc(C#N)cc(C)c1Oc1cc(-c2ccncc2)nc(NC2CCN(Cc3ccc(C(N)=O)cc3)CC2)n1 | 7.39 nM | 21200 nM | 2870 |  |  |  |  |  |  |  | 
Cc1cc(C#N)cc(C)c1Oc1cc(-c2ccco2)nc(NC2CCN(Cc3ccc(S(C)(=O)=O)cc3)CC2)n1 | 5.68 nM | 20700 nM | 3640 |  |  |  |  |  |  |  | 
Cc1cc(C#N)cc(C)c1Oc1cc(-c2ccoc2)nc(NC2CCN(Cc3ccc(S(N)(=O)=O)cc3)CC2)n1 | 9.36 nM | 29500 nM | 3150 |  |  |  |  |  |  |  | 
Cc1cc(C#N)cc(C)c1Oc1cc(-c2cccs2)nc(NC2CCN(Cc3ccc(C(N)=O)cc3)CC2)n1 | 4.48 nM | 19300 nM | 4310 | 20.2 nM | 6.68 nM | 30.5 nM | 44.4 nM | 36.1 nM | 63.4 nM | 399 nM | 299 nM
Cc1cc(C#N)cc(C)c1Oc1cc(-c2cccnc2)nc(NC2CCN(Cc3ccc(C(N)=O)cc3)CC2)n1 | 3.61 nM | 17200 nM | 4760 | 35.6 nM | 11.2 nM | 15.3 nM | 37.6 nM | 9.6 nM | 106 nM | 1420 nM | 428 nM
Cc1cc(C#N)cc(C)c1Oc1cc(-c2cncnc2)nc(NC2CCN(Cc3ccc(C(N)=O)cc3)CC2)n1 | 4.11 nM | 41600 nM | 10100 | 76.8 nM | 10.2 nM | 24.6 nM | 35.3 nM | 29 nM | 279 nM | 1060 nM | 601 nM
Cc1cc(C#N)cc(C)c1Oc1nc(Nc2ccc(C#N)cc2)nc(N)c1Br [ETRAVIRINE] |  | > 4590 nM |  |  |  |  | 30.5 nM | 14.9 nM |  | 32.3 nM | 
